Results on four molecules are retold here after patent US4563465A, “Treatment of migraine with substituted tropyl benzoate derivatives” (Merrell Dow Pharmaceuticals Inc., priority 1981, dated 1986).

Broadly, the ED50 is the dose that gives a 50% effect, or the effect in half of the subjects.

Where two headings read alike, the source gives them in different places.

For series [1], the system named is guinea-pig ileum, acetylcholine. The series can be described thus: Selectivity: inhibition of response to acetylcholine or carbachol, guinea-pig ileum. Type of series: biochemical. The conditions noted are these: read-out: concentration to inhibit standard response to stimulants by 50% (IC50). The text has this: (§1) A selection of classical in vitro pharmacological test preparations (rat uterus, rat fundus, guinea-pig ileum, guinea-pig taenia caeci) were set up according to well-established procedures (see "Pharmacological Experiments on Isolated Preparations" Staff of the Department of Pharmacology, University of Edinburgh, Livingstone, Edinburgh 1970). Various spasmogens were used to elicit contraction of these tissues though mechanisms other than the 5-HT "M" receptor. The concentrations of tropyl 3,5-dimethoxybenzoate (A), tropyl 3,5-dimethylbenzoate (B) and tropyl 3,5-dichlorobenzoate (C) which reduced the effects of a submaximal dose of agonist by 50% were determined (IC50). The results are set forth in Table VI below in which the compounds are identified by the reference letters used above.
**Carbachol agonist instead of acetylcholine

Series [2] relates to 5-HT (Von Bezold-Jarisch reflex). The series can be described thus: Von Bezold-Jarisch reflex evoked by i.v. 5-HT in the anaesthetized rat, antagonism. The conditions noted are these: for ED50 / minimal effective dose: iv; for ED50: read-out: ED50 (inhibits the response to 5-HT by 50%); for minimal effective dose: read-out: threshold dose (just inhibits the response to 5-HT); for potency relative to metoclopramide: Von Bezold-Jarisch reflex, comparative test. Type of series: in vivo, rat (male Sprague-Dawley). An excerpt:
The activity of these compounds against 5-HT can be assessed in vivo by measurement of the effect of the compound on the Von Bezold-Jarisch Reflex induced by 5-HT injected intravenously into the rat (A.S. Paintal, Physiol. Rev. 53, 159-227, 1973). The transient cardiac slowing arises from an increased […] vagus activity arising from stimulation by 5-HT of sensory afferent fibres in and around the heart (see Example 3).
Antagonism of the Von Bezold-Jarisch reflex evoked by 5-HT in the anaesthetized rat was measured for tropyl 3,5-dimethoxybenzoate (A), tropyl 3,5-dimethylbenzoate (B) and tropyl 3,5-dichlorobenzoate (C) using the following method.
Male Sprague-Dawley rats weighing 250-300 g are anaesthetized with urethane, 1.25 g/kg injected intraperitoneally and set up for recording blood pressure and heart rate as described in J. R. Fozard et al, J. Cardiovas. Pharmacol. 2, 229-245 (1980). A submaximal dose of 5-HT ([…]) is given repeatedly into the cannulated jugular vein and changes in heart rate are quantified. Antagonists are given intravenously and the doses required to just inhibit the response to 5-HT (threshold dose) or to inhibit the response to 5-HT by 50% (ED50) are determined.

The test system of series [3] is guinea-pig taenia caeci, calcium. The series can be described thus: Selectivity: inhibition of response to calcium, guinea-pig taenia caeci. The conditions noted are these: agonist calcium, guinea-pig taenia caeci in potassium depolarized Tyrode solution; read-out: concentration to inhibit standard response to stimulants by 50% (IC50). The format is biochemical.
Source text: as §1
*In potassiumdepolarized Tyrode solution

The subject of a further series is mouse and rat. Put plainly: Acute toxicity (LD50) in the mouse and rat, overall statement. Type of series: in vivo.
The next series relates to rat uterus, 5-HT. Put plainly: Selectivity: inhibition of response to 5-HT, rat uterus. The format is biochemical. The conditions noted are these: agonist 5-HT, read-out: concentration to inhibit standard response to stimulants by 50% (IC50).
Source text: as §1

The test system of the next series is rat uterus, oxytocin. Put plainly: Selectivity: inhibition of response to oxytocin, rat uterus. Type of series: biochemical. The conditions noted are these: agonist oxytocin, read-out: concentration to inhibit standard response to stimulants by 50% (IC50).
Source text: as §1

The subject of a further series is rat fundus, 5-HT. The series can be described thus: Selectivity: inhibition of response to 5-HT, rat fundus. The format is biochemical. The conditions noted are these: agonist 5-HT, read-out: concentration to inhibit standard response to stimulants by 50% (IC50).
Source text: as §1

Series [4] has as its system rat fundus, acetylcholine. The series can be described thus: Selectivity: inhibition of response to acetylcholine, rat fundus. The format is biochemical. The conditions noted are these: agonist acetylcholine, read-out: concentration to inhibit standard response to stimulants by 50% (IC50).
Source text: as §1

Series [5] relates to guinea-pig ileum, histamine. Put plainly: Selectivity: inhibition of response to histamine, guinea-pig ileum. The format is biochemical. The conditions noted are these: agonist histamine, read-out: concentration to inhibit standard response to stimulants by 50% (IC50).
Source text: as §1

Another series concerns acute migraine attack. The conditions noted are these: slow intravenous injection, 10 mg; J. B. Hughes 1977; cited from earlier work.
The subject of series [6] is patients with migraine or cluster headaches. The series can be described thus: Pilot study of tolerance and efficacy, intravenous, in patients with migraine or cluster headaches. Type of series: in vivo, human (patients). The conditions noted are these: for headache response: Patient No. 6. Here is the method:
This study was designed to evaluate tolerance and, if possible, efficacy of intravenous tropyl 3,5-dichlorobenzoate in patients with migraine or cluster headaches.
Eight patients (4 males), aged 27-47 with known headache disorders of 5-27 years duration (see Table VII) took part in the study but Patients Nos. 2 and 4 had cluster not migraine headaches and the cause of headaches in Patient No. 6 was unknown.
Tropyl 3,5-dichlorobenzoate was provided as a sterile solution, 1 mg/ml; the desired dose to be diluted in 10 ml normal saline for intravenous infusion over a 2 minute period. No other therapy was taken for at least 24 hours before treatment or during the course of therapy.
Doses as high as 14 mg/day and 9 mg single dose were administered without any signs of intolerance.

[7] abbreviates: Patient 6, after 4 mg dose i.v.

Consider `Cc1cc(C)cc(C(=O)OC2CC3CCC(C2)N3C)c1` (stereo not shown) [B, tropyl 3,5-dimethylbenzoate], for which the IC50 in [1] (carbachol agonist instead of acetylcholine) was 9.59 µM; in series [3] it was 34.2 µM. Also, in series [2] (Rattus norvegicus), the ED50 was determined as 6.07 ± 0.72 µg/kg. Also, in [2] (Rattus norvegicus), the minimal effective dose came to 3.57 ± 0.33 µg/kg. Moreover, in series [2], the “potency relative to metoclopramide” value is reported as “many times more potent than metoclopramide”. Moreover, the “toxicity as shown by LD50 values” in the series on mouse and rat is recorded as “relatively non-toxic”.

Regarding `COc1cc(OC)cc(C(=O)OC2CC3CCC(C2)N3C)c1` (stereo not shown) [A, tropyl 3,5-dimethoxybenzoate], the IC50 in series [1] (agonist acetylcholine) was 9.56 µM; with rat uterus, 5-HT it was more than 52.5 µM; with rat uterus, oxytocin, more than 52.5 µM; in series [3], 36.1 µM; in the series on rat fundus, 5-HT it was 40 µM; in series [4] it was 13.1 µM. Moreover, the IC50 in series [5] amounted to 6.61 µM. In series [2] (Rattus norvegicus), the 50% effective dose (ED50) came to 13.7 ± 1.2 µg/kg. For the same molecule, the minimal effective dose in series [2] (Rattus norvegicus) is 6.96 ± 0.9 µg/kg. Besides, the “potency relative to metoclopramide” value in series [2] is reported as “many times more potent than metoclopramide”. The “toxicity as shown by LD50 values” in the series on mouse and rat was “relatively non-toxic”.

For the molecule `CCN(CC)CCNC(=O)c1cc(Cl)c(N)cc1OC` [metoclopramide, reference compound], in series [2] (antagonist i.v., anaesthetized rat), the minimal effective dose turned out to be 233 ± 66.3 µg/kg. In addition, the “relief of acute migraine attack” value with acute migraine attack is on record as “immediate relief of acute migraine attack”.

For `CN1C2CCC1CC(OC(=O)c1cc(Cl)cc(Cl)c1)C2` (stereo not shown) [C, tropyl 3,5-dichlorobenzoate], the IC50 in series [1] (agonist acetylcholine) is 8.05 µM; in the series on rat uterus, 5-HT it was 25.4 µM; with rat uterus, oxytocin, more than 50.9 µM; in series [3], 28.6 µM; in the series with rat fundus, 5-HT, more than 50.9 µM; in series [4] it was 12.4 µM. Further, the IC50 in series [5] amounted to 3.68 µM. Also, the ED50 in series [2] (Rattus norvegicus) worked out at 22 ± 3.2 µg/kg. In series [2] (Rattus norvegicus), the minimal effective dose amounted to 7.72 ± 0.63 µg/kg. Besides, the “potency relative to metoclopramide” value in [2] was “many times more potent than metoclopramide”. Also, the response entry in series [6] (Patient 1, i.v. 1 mg, then 1 hour later, 2 mg) is “no effect on headache or nausea”; in series [6] (Patient 2 (cluster), i.v. 1 mg), “no effect”; in series [6] (Patient 4 (cluster), i.v. 3 mg), “no effect”; in series [6] (Patient 7, i.v. 3 mg × 1 day, then 5 mg × 2 days, then 7 mg × 1 day), “no effect”. In addition, in series [6] (Patient 6, 5 mg bid × 2 days, then 6 mg bid × 11 days i.v.), the “effect of increased doses” value is “no greater effect”. The “duration of reduction of pain intensity” value in [6] (setting [7]) fell in the range of 4 to 8 h. Besides, the “time to reduction of pain intensity” value in series [6] (setting [7]) is not above 30 min. Besides, the “reduction of pain intensity” value in series [6] (Patient 6, within 30 minutes after 4 mg dose i.v.) is 70-80%. Moreover, in series [6] (Patient 8, i.v. 6 mg × 1 day, 7 mg × 2 days, 9 mg × 1 day), the “response during increasing doses” value is listed as “maintained during increasing doses”. Moreover, the reduction of pain result in series [6] (Patient 8, with 3 mg i.v.) is reported as “about 30%”. Also, the headache response result was “slight reduction in their bilateral headache” in [6] (3 mg single doses i.v.) and “further amelioration” in series [6] (4 mg bid i.v.). Besides, in series [6] (Patient No. 8), the “time after stopping therapy to return of headaches to pretreatment intensity” value was 6 to 7 days. The symptom response result in series [6] (Patient No. 8, first dose of 3 mg i.v.) is “decrease in all symptoms”. Moreover, the “repeated dose well tolerated (highest)” value in series [6] (i.v. b.i.d., patients with headaches) is recorded as “up to 7 mg”. Further, in [6] (i.v., over 18 days), the “cumulative dose well tolerated (highest)” value was determined as 177 mg. Moreover, in series [6] (i.v., patients), the “dose per day administered without any signs of intolerance (highest)” value amounted to 14 mg/day. Besides, the “patients with marked diminution of headache and associated symptoms” value in series [6] (patients treated with repeated doses (Patients Nos. 6 and 8), i.v.) is reported as “two of the three patients”. In [6] (some patients treated with doses of 3 mg or greater, i.v.), the “pain intensity and associated symptoms” value is given as “ameliorated”. In addition, the “toxicity as shown by LD50 values” in the series on mouse and rat is “relatively non-toxic”.
